30 molecules from patent publication US8563717B2, “Adenine derivatives” (GlaxoSmithKline LLC, priority 2008, dated 2013) can be followed below.

The assay deals with Interferon-α. The experiment in a line: Induction of Interferon-α using cryopreserved human PBMCs. The format is cell-based. As to conditions: PBMC, 24 h incubation, normalised to 1 uM resiquimod, read-out: mean pEC50 for induction of IFN-α (converted). The method, then:
Assay for the Induction of Interferon-α Using Cryopreserved Human Peripheral Blood Mononuclear Cells (PBMCs)
Compounds were dissolved in DMSO. Serial 2-fold dilutions with DMSO were prepared and 0.25 μl dispensed into 384-well clear Greiner polypropylene plates.
Blood samples of up to 200 ml were obtained from healthy human donors. Whole blood in 25 ml volumes was overlaid onto 15 ml Ficoll gradients in Leucosep tubes, and centrifuged at 1000 g for 20 min. Cells in the band at the plasma/histopaque interface were carefully removed and washed twice with PBS (centrifuged at 400 g for 5 min to harvest). The final pellet was resuspended in freezing medium (90% Heat-inactivated serum, 10% DMSO) to a cell concentration of 4×10^7 cells/ml. The resuspended cells were then cryopreserved (frozen) using a rate controlled freezer, and stored at −140° C. for up to 4 months.
Immediately prior to assay, vials of cryopreserved (frozen) PBMCs were thawed rapidly in a water bath at 37° C. A 1:10 dilution of the cells in trypan blue was prepared and counted. The PBMCs were then diluted in growth media [RPMI 1640 containing 10% fetal calf serum (invitrogen), Penicillin+[…] (Gibco cat. #25030-024, 1:50), L-Glutamine 2 mM, and 1000 units/ml recombinant human IFN-gamma (Preprotech catalogue #300-02)] to a density of 1×10^6 cells/ml, and 50 ul/well dispensed to 384-well clear Greiner polypropylene plates containing 0.25 μl DMSO or test compound in 0.25 μl DMSO. […] Plates were incubated for 24 h at 37° C. in 5% CO2.
A multi-isoform immunoassay was used to quantify IFN-α in PBMC supernatants. Rabbit polyclonal antibody against human IFN-α (catalogue number 31101, Stratech Scientific) was diluted 1:10000 in assay buffer (RPMI 1640 containing 10% fetal calf serum, Invitrogen) and 20 μl was added to each well of an MSD (Meso-Scale Discovery) single small-spot 384-well GAR (goat anti-rabbit antibody coated) plate. The plate was incubated for 1 hour at room temperature with vigorous shaking. Following three washes with PBS, 20 μl of cell supernatant were added to each well of the plate. The plate was then incubated for 1 hour at room temperature with vigorous shaking. A pair of monoclonal antibodies to IFN-α (catalogue numbers 21100 and 21112, Stratech Scientific) were labelled with sulfo-TAG (MSD), diluted 1:1000 in assay buffer and 20 μl added to each well of the plate. The plate was further incubated for 1 hour at room temperature with vigorous shaking. Following three washes with PBS, 30 μl of x2 T buffer (MSD) was added to each well and the plate was read on an MSD Sector 6000 plate reader.
Data were normalised to internal plate controls of 1 uM resiquimod (n=16) and DMSO (n=16). pEC50 values were derived by 4-parameter curve fit with IRLS in ActivityBase, from 11-point, two-fold serial dilution of test compounds.
`CCCCOc1nc(N)c2[nH]c(=O)n(CCC3CCN(CCCC)CC3)c2n1` [Example 82, 6-Amino-2-(butyloxy)-9-[2-(1-butyl-4-piperidinyl)ethyl]-7,9-dihydro-8H-purin-8-one]: the EC50 was under 1580 nM.

Take `CCCCOc1nc(N)c2[nH]c(=O)n(CCC3CCN(CC(C)C)CC3)c2n1` [Example 83, 6-Amino-2-(butyloxy)-9-{2-[1-(2-methylpropyl)-4-piperidinyl]ethyl}-7,9-dihydro-8H-purin-8-one]: the EC50 was under 1580 nM.

As to `CCCCOc1nc(N)c2[nH]c(=O)n(CCC3CCN(C(CC)CC)CC3)c2n1` [Example 84, 6-Amino-2-(butyloxy)-9-{2-[1-(1-ethylpropyl)-4-piperidinyl]ethyl}-7,9-dihydro-8H-purin-8-one], the EC50 is under 1580 nM.

On to `CCCCOc1nc(N)c2[nH]c(=O)n(CCC3CCN(CCC(C)C)CC3)c2n1` [Example 85, 6-Amino-2-(butyloxy)-9-{2-[1-(3-methylbutyl)-4-piperidinyl]ethyl}-7,9-dihydro-8H-purin-8-one], for which the EC50 is under 1580 nM.

Take `CCCCOc1nc(N)c2[nH]c(=O)n(CCC3CCN(C4CCCC4)CC3)c2n1` [Example 86, 6-Amino-2-(butyloxy)-9-[2-(1-cyclopentyl-4-piperidinyl)ethyl]-7,9-dihydro-8H-purin-8-one]: the EC50 is under 1580 nM.

Take `CCCCOc1nc(N)c2[nH]c(=O)n(CCC3CCN(CC4CCCC4)CC3)c2n1` [Example 87, 6-Amino-2-(butyloxy)-9-{2-[1-(cyclopentylmethyl)-4-piperidinyl]ethyl}-7,9-dihydro-8H-purin-8-one]: the EC50 was under 1580 nM.

Regarding `CCCCOc1nc(N)c2[nH]c(=O)n(CCC3CCN(C4CCCCC4)CC3)c2n1` [Example 88, 6-Amino-2-(butyloxy)-9-[2-(1-cyclohexyl-4-piperidinyl)ethyl]-7,9-dihydro-8H-purin-8-one], the EC50 is under 1580 nM.

On to `CCCCOc1nc(N)c2[nH]c(=O)n(CCC3CCN(CCC4CCCCC4)CC3)c2n1` [Example 89, 6-Amino-2-(butyloxy)-9-{2-[1-(2-cyclohexylethyl)-4-piperidinyl]ethyl}-7,9-dihydro-8H-purin-8-one], for which the EC50 is under 1580 nM.

Regarding `CCC[C@H](C)Oc1nc(N)c2[nH]c(=O)n(CCC3CCNCC3)c2n1` [Example 90, 6-Amino-2-{[(1S)-1-methylbutyl]oxy}-9-[2-(4-piperidinyl)ethyl]-7,9-dihydro-8H-purin-8-one], the EC50 was under 1580 nM.

On to `CCCCOc1nc(N)c2[nH]c(=O)n(CCCC3CCNCC3)c2n1` [Example 93, 6-Amino-2-(butyloxy)-9-[3-(4-piperidinyl)propyl]-7,9-dihydro-8H-purin-8-one], for which the EC50 is under 1580 nM.

Regarding `CCCCOc1nc(N)c2[nH]c(=O)n(CCCC3CCN(CC(C)C)CC3)c2n1` [Example 97, 6-Amino-2-(butyloxy)-9-{3-[1-(2-methylpropyl)-4-piperidinyl]propyl}-7,9-dihydro-8H-purin-8-one], the EC50 is under 1580 nM.

On to `CCCCOc1nc(N)c2[nH]c(=O)n(CCCC3CCN(C(CC)CC)CC3)c2n1` [Example 98, 6-Amino-2-(butyloxy)-9-{3-[1-(1-ethylpropyl)-4-piperidinyl]propyl}-7,9-dihydro-8H-burin-8-one], for which the EC50 is under 1580 nM.

Turning to `CCCCOc1nc(N)c2[nH]c(=O)n(CCCC3CCN(CCC(C)C)CC3)c2n1` [Example 99, 6-Amino-2-(butyloxy)-9-{3-[1-(3-methylbutyl)-4-piperidinyl]propyl}-7,9-dihydro-8H-purin-8-one], the EC50 was under 1580 nM.

For `CCCCOc1nc(N)c2[nH]c(=O)n(CCCC3CCN(C4CCCC4)CC3)c2n1` [Example 100, 6-Amino-2-(butyloxy)-9-[3-(1-cyclopentyl-4-piperidinyl)propyl]-7,9-dihydro-8H-purin-8-one], the EC50 was under 1580 nM.

Turning to `CCCCOc1nc(N)c2[nH]c(=O)n(CCCC3CCN(CC4CCCC4)CC3)c2n1` [Example 101, 6-Amino-2-(butyloxy)-9-{3-[1-(cyclopentylmethyl)-4-piperidinyl]propyl}-7,9-dihydro-8H-purin-8-one], the EC50 is under 1580 nM.

For `CCCCOc1nc(N)c2[nH]c(=O)n(CCCC3CCN(CCC4CCCCC4)CC3)c2n1` [Example 103, 6-Amino-2-(butyloxy)-9-{3-[1-(2-cyclohexylethyl)-4-piperidinyl]propyl}-7,9-dihydro-8H-purin-8-one], the EC50 is under 1580 nM.

Turning to `CCC[C@H](C)Oc1nc(N)c2[nH]c(=O)n(CCCC3CCN(CC)CC3)c2n1` [Example 105, 6-Amino-9-[3-(1-ethyl-4-piperidinyl)propyl]-2-{[(1S)-1-methylbutyl]oxy}-7,9-dihydro-8H-purin-8-one], the EC50 was under 1580 nM.

For the molecule `CCCCOc1nc(N)c2[nH]c(=O)n(CCCCC3CCNCC3)c2n1` [Example 107, 6-Amino-2-(butyloxy)-9-[4-(4-piperidinyl)butyl]-7,9-dihydro-8H-purin-8-one], the EC50 was under 1580 nM.

With `CCCCOc1nc(N)c2[nH]c(=O)n(CCCCC3CCN(C(C)C)CC3)c2n1` [Example 109, 6-Amino-2-(butyloxy)-9-{4-[1-(1-methylethyl)-4-piperidinyl]butyl}-7,9-dihydro-8H-purin-8-one], the EC50 is under 1580 nM.

Turning to `CCCCOc1nc(N)c2[nH]c(=O)n(CCCCC3CCN(CCCC)CC3)c2n1` [Example 110, 6-Amino-2-(butyloxy)-9-[4-(1-butyl-4-piperidinyl)butyl]-7,9-dihydro-8H-purin-8-one], the EC50 is under 1580 nM.

For the molecule `CCCCOc1nc(N)c2[nH]c(=O)n(CCCCC3CCN(CC(C)C)CC3)c2n1` [Example 111, 6-Amino-2-(butyloxy)-9-{4-[1-(2-methylpropyl)-4-piperidinyl]butyl}-7,9-dihydro-8H-purin-8-one], the EC50 was under 1580 nM.

On to `CCCCOc1nc(N)c2[nH]c(=O)n(CCCCC3CCN(C(CC)CC)CC3)c2n1` [Example 112, 6-Amino-2-(butyloxy)-9-{4-[1-(1-ethylpropyl)-4-piperidinyl]butyl}-7,9-dihydro-8H-purin-8-one], for which the EC50 is under 1580 nM.

Turning to `CCCCOc1nc(N)c2[nH]c(=O)n(CCCCC3CCN(CCC(C)C)CC3)c2n1` [Example 113, 6-Amino-2-(butyloxy)-9-{4-[1-(3-methylbutyl)-4-piperidinyl]butyl}-7,9-dihydro-8H-purin-8-one], the EC50 was under 1580 nM.

For `CCCCOc1nc(N)c2[nH]c(=O)n(CCCCC3CCN(C4CCCC4)CC3)c2n1` [Example 114, 6-Amino-2-(butyloxy)-9-[4-(1-cyclopentyl-4-piperidinyl)butyl]-7,9-dihydro-8H-purin-8-one], the EC50 is under 1580 nM.

As for `CCCCOc1nc(N)c2[nH]c(=O)n(CCCCC3CCN(CC4CCCC4)CC3)c2n1` [Example 115, 6-Amino-2-(butyloxy)-9-{4-[1-(cyclopentylmethyl)-4-piperidinyl]butyl}-7,9-dihydro-8H-purin-8-one], the EC50 is under 1580 nM.

With `CCCCOc1nc(N)c2[nH]c(=O)n(CCCCC3CCN(C4CCCCC4)CC3)c2n1` [Example 116, 6-Amino-2-(butyloxy)-9-[4-(1-cyclohexyl-4-piperidinyl)butyl]-7,9-dihydro-8H-purin-8-one], the EC50 was under 1580 nM.

For the molecule `CCCCOc1nc(N)c2[nH]c(=O)n(CCCCC3CCN(CCC4CCCCC4)CC3)c2n1` [Example 117, 6-Amino-2-(butyloxy)-9-{4-[1-(2-cyclohexylethyl)-4-piperidinyl]butyl}-7,9-dihydro-8H-purin-8-one], the EC50 is under 1580 nM.

`CCC[C@H](C)Oc1nc(N)c2[nH]c(=O)n(CCCCC3CCNCC3)c2n1` [Example 118, 6-Amino-2-{[(1S)-1-methylbutyl]oxy}-9-[4-(4-piperidinyl)butyl]-7,9-dihydro-8H-purin-8-one]: the EC50 was under 1580 nM.

As for `CCCCNc1nc(N)c2[nH]c(=O)n(CCCCC3CCNCC3)c2n1` [Example 120, 6-Amino-2-(butylamino)-9-[4-(4-piperidinyl)butyl]-7,9-dihydro-8H-purin-8-one], the EC50 is under 1580 nM.

Turning to `CCCCNc1nc(N)c2[nH]c(=O)n(CCCCC3CCN(CC)CC3)c2n1` [Example 121, 6-Amino-2-(butylamino)-9-[4-(1-ethyl-4-piperidinyl)butyl]-7,9-dihydro-8H-purin-8-one], the EC50 is under 1580 nM.
